The target in the data set is IRF5. Conditions: ASO.

Where “and” joins values, the source holds several entries; their conditions need not be identical. Equal entries are not always repeated. After the bases stand the sugars from the 5' end (letter, count) and the backbone: PS all phosphorothioate, else s phosphorothioate and o phosphodiester by linkage. Methylation of C is not given here. [mop] = methoxypropylphosphonate linkage; e = 2'-O-(2-methoxyethyl) (MOE); k = constrained ethyl (cEt); d = 2'-deoxy (DNA); m = 2'-O-methyl

“GAGTCATGGGCTGAGG (sugars kkdddddddddkekek, PS)” came in with a target mRNA inhibition (KARPAS-229, 4 µM) of 15%.
Sequence “GAGTCATGGGCTGAGG (sugars kkkddddddddkekek, PS)” gave a target mRNA inhibition (KARPAS-229, 4 µM) of 0%.
Turning to “GAGTCTCAAACCAGGG (sugars kkddddddddkekekk, PS)”, the target mRNA inhibition (KARPAS-229, 4 µM) is 0%.
On to “GATGGTGTTATCTCCG (sugars k2 d9 e3 k2, PS)”, for which the target mRNA inhibition (KARPAS-229, 4 µM) turned out to be 0%.
On the same count and under the same terms, then “GATGGTGTTATCTCCG (sugars kkddddddddkekekk, PS)”, with 0%; and “GATGGTGTTATCTCCG (sugars kkkddddddddkekek, PS)”, with 0%.
As to GCAAAGGGTGAGTAGG (sugars k3 d10 k3, PS), where the note is “KARPAS-229, 4 µM”, the target mRNA inhibition is 24%.
Same read-out and setting: as for “GCACTGACACAGGCGG (sugars kddddddddddkekek, PS)”, the figure is 0%; as for GCATTCCATATACACA (sugars k3 d10 k3, PS), 21%; as for “GCATTCCATATACACA (sugars kkddddddddddkeke, PS)”, 37%.
The same measure, in the same setting: then “GCATTCCATATACACA (sugars kkdddddddddkekek, PS)”, with 2%.
On the same count and under the same terms, as for “GCATTCCATATACACA (sugars kkkddddddddkekek, PS)”, the figure is 0%.
Sequence “GCTGTCACATCTCCAC (sugars kdddddddddkekeke, PS)” had a target mRNA inhibition (KARPAS-229, 4 µM) of 0%.
Still for that read-out and setting: as for “GCTGTCACATCTCCAC (sugars kkddddddddddkeke, PS)”, the figure is 8%; as for “GCTGTCACATCTCCAC (sugars kkkddddddddkekek, PS)”, 0%; as for “GCTTGGTCTTGACCTC (sugars kkkdddddddddkeke, PS)”, 35%.
The same measure, in the same setting: then “GGAAGTGAGTCTCAAA (sugars k2 d8 e4 k2, PS)”, with 34%.
Turning to GGAAGTGAGTCTCAAA (sugars k3 d10 k3, PS), the target mRNA inhibition runs as follows: (KARPAS-229, 0.44444 µM) 27%; (KARPAS-229, 1.33333 µM) 39%; (KARPAS-229, 4 µM) 51% and 68%; (KARPAS-229, 12 µM) 79%.
Sequence “GGAAGTGAGTCTCAAA (sugars kkdddddddddkdkdk, PS)” yielded a target mRNA inhibition (KARPAS-229, 4 µM) of 12%.
Consider “GGAGTGAGACGAGCAA (sugars k2 d8 e4 k2, PS)”, for which, where the note is “KARPAS-229, 4 µM”, the target mRNA inhibition was 17%.
On the same count and under the same terms, as for “GGAGTGAGACGAGCAA (sugars k2 d9 e3 k2, PS)”, the figure is 25%; as for “GGTCTGGCCCTTTTGG (sugars k3 d9 k3 e1, PS)”, 0%.
On the same count and under the same terms, then “GGTCTGGCCCTTTTGG (sugars kkkdddddddddkeke, PS)”, with 17%.
On the same count and under the same terms, then GGTCTTGACCTCCCGC (sugars k3 d10 k3, PS), with 33%; and “GGTCTTGACCTCCCGC (sugars kdddddddddkekeke, PS)”, with 35%; and “GGTCTTGACCTCCCGC (sugars kkddddddddddkeke, PS)”, with 0%.
“GGTCTTGACCTCCCGC (sugars kkdddddddddkekek, PS)”: the target mRNA inhibition (KARPAS-229, 4 µM) was 7%.
Sequence “GGTCTTGACCTCCCGC (sugars kkddddddddkekekk, PS)” displayed a target mRNA inhibition (KARPAS-229, 4 µM) of 44%.
With “GGTCTTTGAGGTCTGG (sugars kkdddddddddkekek, PS)”, the target mRNA inhibition (KARPAS-229, 4 µM) was found to be 54%.
The same measure, in the same setting: then “GGTCTTTGAGGTCTGG (sugars kkkddddddddkekek, PS)”, with 46%; and “GGTGTATTTCCCTGTC (sugars kkkdddddddddkeke, PS)”, with 0%.
Turning to “GGTTCTTGGACTCTCA (sugars kkddddddddddkeke, PS)”, the target mRNA inhibition was 39% (KARPAS-229, 0.44444 µM); 59% (KARPAS-229, 1.33333 µM); 51% and 73% (KARPAS-229, 4 µM); 84% (KARPAS-229, 12 µM).
For the sequence “GGTTCTTGGACTCTCA (sugars kkkddddddddkekek, PS)”, where the note is “KARPAS-229, 4 µM”, the target mRNA inhibition came to 25%.
Same read-out and setting: as for GTCATGGAATTTTGTG (sugars k3 d10 k3, PS), the figure is 54%; as for GTCTAGTGTCATGGAA (sugars k3 d10 k3, PS), 38%.
Still for that read-out and setting: as for “GTCTGGCCCTTTTGGA (sugars kkddddddddddkeke, PS)”, the figure is 0%; as for “GTGAGTCTCAAACCAG (sugars kddddddddddkekek, PS)”, 0%.
On the same count and under the same terms, as for “GTGAGTCTCAAACCAG (sugars kkddddddddkekekk, PS)”, the figure is 9%; as for “GTGAGTCTCAAACCAG (sugars kkkdddddddddkeke, PS)”, 0%.
“GTGTATTTCCCTGTCT (sugars kkdddddddddkekek, PS)” came in with a target mRNA inhibition (KARPAS-229, 4 µM) of 0%.
“GTGTATTTCCCTGTCT (sugars kkkddddddddkekek, PS)”: where the note is “KARPAS-229, 4 µM”, the target mRNA inhibition worked out at 0%.
Still for that read-out and setting: as for “GTTATCTCCGTCCTGG (sugars k3 d9 k3 e1, PS)”, the figure is 33%.
The sequence “GTTATCTCCGTCCTGG (sugars kdddddddddkekeke, PS)” yielded a target mRNA inhibition (KARPAS-229, 4 µM) of 0%.
The same measure, in the same setting: as for “GTTATCTCCGTCCTGG (sugars kkddddddddddkeke, PS)”, the figure is 0%; as for “GTTATCTCCGTTCCTGG (sugars kddddddddddkekekd, PS)”, 0%; as for “GTTATCTCCGTTCCTGG (sugars kkkddddddddkdkdkd, PS)”, 27%.
Still for that read-out and setting: as for “GTTCTTGGACTCTCAA (sugars kkdddddddddkdkdk, PS)”, the figure is 20%.
Consider TAAACCATTCTATGCC (sugars k3 d10 k3, PS), for which the target mRNA inhibition (KARPAS-229, 4 µM) amounted to 9%.
Still for that read-out and setting: as for TAAGGGCACAGCGCAG (sugars k3 d10 k3, PS), the figure is 0%; as for TAGGAGTGAGACGAGC (sugars k3 d10 k3, PS), 1%.
For “TATTTCTGCTCCAGGT (sugars k2 d9 e3 k2, PS)”, the target mRNA inhibition runs as follows: (KARPAS-229, 0.44444 µM) 57%; (KARPAS-229, 1.33333 µM) 71%; (KARPAS-229, 12 µM) 83%.
As for “TATTTCTGCTCCAGGT (sugars kkddddddddkekekk, PS)”, the target mRNA inhibition (KARPAS-229, 4 µM) is 0%.
For the sequence “TATTTCTGCTCCAGGT (sugars kkkddddddddkekek, PS)”, the target mRNA inhibition (KARPAS-229, 4 µM) is 24%.
With “TCACCACTGTGTACCC (sugars k2 d8 e4 k2, PS)”, the target mRNA inhibition (KARPAS-229, 4 µM) turned out to be 0%.
As to TCCAATTTTGCATTCC (sugars k3 d10 k3, PS), the target mRNA inhibition reads like this: (KARPAS-229, 0.44444 µM) 38%; (KARPAS-229, 1.33333 µM) 66%; (KARPAS-229, 4 µM) 78% and 79%; (KARPAS-229, 12 µM) 83%.
For the setting “KARPAS-229, 4 µM”, “TCCAATTTTGCATTCC (sugars kkddddddddddkeke, PS)” came in with a target mRNA inhibition of 40%.
Same read-out and setting: then “TCCAATTTTGCATTCC (sugars kkdddddddddkekek, PS)”, with 29%.
The sequence “TCCAATTTTGCATTCC (sugars kkkddddddddkekek, PS)” showed a target mRNA inhibition (KARPAS-229, 4 µM) of 51%.
TCTAGTGTCATGGAAT (sugars k3 d10 k3, PS) displayed a target mRNA inhibition (KARPAS-229, 4 µM) of 14%.
“TCTGATATGATACCTA (sugars k3 d1 k1 d8 k3, PS)”: the target mRNA inhibition reads like this: (A-431, 0.00412 µM) 0%; (A-431, 0.01225 µM) 7%; (A-431, 0.03704 µM) 43%; (A-431, 0.11111 µM) 65%; (A-431, 0.33333 µM) 81%; (A-431, 1 µM) 85%.
“TCTGATATGATACCTA (sugars k3 d1 m1 d8 k3, PS)”: the target mRNA inhibition runs as follows: (A-431, 0.00412 µM) 1%; (A-431, 0.01225 µM) 8%; (A-431, 0.03704 µM) 35%; (A-431, 0.11111 µM) 57%; (A-431, 0.33333 µM) 77%; (A-431, 1 µM) 81%.
For “TCTGATATGATACCTA (sugars k3 d10 k3, linkages s4 [mop]1 s10)”, the target mRNA inhibition was 10% (A-431, 0.00412 µM); 14% (A-431, 0.01225 µM); 43% (A-431, 0.03704 µM); 66% (A-431, 0.11111 µM); 80% (A-431, 0.33333 µM); 87% (A-431, 1 µM).
As for “TCTGATATGATACCTA (sugars k3 d10 k3, linkages s5 [mop]1 s9)”, the target mRNA inhibition was 10% (A-431, 0.00412 µM); 6% (A-431, 0.01225 µM); 38% (A-431, 0.03704 µM); 56% (A-431, 0.11111 µM); 71% (A-431, 0.33333 µM); 77% (A-431, 1 µM).
“TCTGGCCCTTTTGGAA (sugars kddddddddddkekek, PS)” had a target mRNA inhibition (KARPAS-229, 4 µM) of 0%.
The same measure, in the same setting: as for “TCTTGACCTCCCGCTG (sugars kddddddddddkekek, PS)”, the figure is 46%; as for TGACTGTATTACCTAT (sugars k3 d10 k3, PS), 18%; as for TGAGTAGGACGAGTTA (sugars k3 d10 k3, PS), 18%.
Under “KARPAS-229, 4 µM”, “TGAGTCATGGGCTGAG (sugars k2 d8 e4 k2, PS)” came in with a target mRNA inhibition of 15%.
“TGAGTCATGGGCTGAG (sugars kddddddddkekekdd, PS)” displayed a target mRNA inhibition (KARPAS-229, 4 µM) of 0%.
Still for that read-out and setting: as for “TGAGTCATGGGCTGAG (sugars kekdddddddddeekk, PS)”, the figure is 12%.
For the sequence “TGAGTCATGGGCTGAG (sugars kkkddddddddkekek, PS)”, the target mRNA inhibition (KARPAS-229, 4 µM) is 0%.
“TGAGTCTCAAACCAGG (sugars kkdddddddddkekek, PS)”: the target mRNA inhibition (KARPAS-229, 4 µM) was 0%.
Same read-out and setting: then “TGAGTCTCAAACCAGG (sugars kkdddkddddkekekk, PS)”, with 0%.
On the same count and under the same terms, then “TGAGTCTCAAACCAGG (sugars kkkddddddddkekek, PS)”, with 0%; and “TGCACTGACACAGGCG (sugars kkkddddddddkekek, PS)”, with 0%; and TGCAGGGAGTCAGACC (sugars k3 d10 k3, PS), with 0%.
Regarding TGCCTTCTGCAGGGAG (sugars k3 d10 k3, PS), the target mRNA inhibition (KARPAS-229, 4 µM) was determined as 0%.
